Calls of active or inactive are those of the source. No rule for the calls is given here.
System: rodent lifetime carcinogenesis bioassay, tumor incidence TD50
Assay: chronic cancer bioassays in animals – CPDB, compiled studies (AID 1745844)

What does the source list for `COP(=O)(OC)OC`?
TD50 (mouse, strain B6C3F1, females, by gavage, site: any site (literature study), lesion: several types, types named in the paper, dosed 103 weeks, study length 103 weeks): 385 mg/kg/day; TD50 (mouse, strain B6C3F1, females, by gavage, site: liver, lesion: hepatocellular adenoma + hepatocellular carcinoma + neoplastic nodule, dosed 103 weeks, study length 103 weeks): 6390 mg/kg/day; TD50 (mouse, strain B6C3F1, females, by gavage, site: lung, lesion: alveolar/bronchiolar adenoma + alveolar/bronchiolar carcinoma, dosed 103 weeks, study length 103 weeks): 3900 mg/kg/day; TD50 (mouse, strain B6C3F1, females, by gavage, site: uterus, endometrium, lesion: adenocarcinoma, NOS, dosed 103 weeks, study length 103 weeks): 335 mg/kg/day; carcinogen call (mouse, strain B6C3F1, males, by gavage, site: any site (literature study), lesion: several types, types named in the paper, dosed 103 weeks, study length 103 weeks): negative (inactive); TD50 (mouse, strain B6C3F1, males, by gavage, site: lung, lesion: alveolar/bronchiolar adenoma + alveolar/bronchiolar carcinoma, dosed 103 weeks, study length 103 weeks): 61300 mg/kg/day; carcinogen call (rat, strain BOR:WISW (Wistar), females, in drinking water, site: any site (literature study), lesion: one or several types, types not named, dosed 52 weeks, study length 52 weeks): negative (inactive); carcinogen call (rat, strain BOR:WISW (Wistar), females, in drinking water, site: any site (literature study), lesion: several types, types named in the paper, dosed 118 weeks, study length 128 weeks): negative (inactive); carcinogen call (rat, strain BOR:WISW (Wistar), females, in drinking water, site: liver, lesion: hepatoma, dosed 118 weeks, study length 128 weeks): negative (inactive); carcinogen call (rat, strain BOR:WISW (Wistar), males, in drinking water, site: any site (literature study), lesion: one or several types, types not named, dosed 52 weeks, study length 52 weeks): negative (inactive); carcinogen call (rat, strain BOR:WISW (Wistar), males, in drinking water, site: any site (literature study), lesion: several types, types named in the paper, dosed 118 weeks, study length 128 weeks): negative (inactive); carcinogen call (rat, strain BOR:WISW (Wistar), males, in drinking water, site: liver, lesion: hepatoma, dosed 118 weeks, study length 128 weeks): negative (inactive); TD50 (rat, strain Fischer 344, females, by gavage, site: any site (literature study), lesion: several types, types named in the paper, dosed 104 weeks, study length 105 weeks): 73 mg/kg/day (inactive); TD50 (rat, strain Fischer 344, males, by gavage, site: any site (literature study), lesion: several types, types named in the paper, dosed 104 weeks, study length 105 weeks): 54.5 mg/kg/day; TD50 (rat, strain Fischer 344, males, by gavage, site: liver, lesion: hepatocellular adenoma + hepatocellular carcinoma + neoplastic nodule, dosed 104 weeks, study length 105 weeks): 485 mg/kg/day; TD50 (rat, strain Fischer 344, males, by gavage, site: subcutaneous tissue, lesion: fibroma, dosed 104 weeks, study length 105 weeks): 123 mg/kg/day

`CC(=O)OC/C=C(C)/C=C/C=C(C)/C=C/C1=C(C)CCCC1(C)C` was tested. Which TD50 (rat, strain F344/DuCrj, females, in drinking water, site: adrenal medulla, lesion: pheochromocytoma, malignant, dosed 104 weeks, study length 108 weeks) did it give?
The TD50 was 7340 mg/kg/day.

What about the TD50 (rat, strain F344/DuCrj, females, in drinking water, site: adrenal medulla, lesion: pheochromocytoma, dosed 104 weeks, study length 108 weeks) of the same compound?
Its TD50 is 227 mg/kg/day.

And the TD50 (rat, strain F344/DuCrj, females, in drinking water, site: liver, lesion: neoplastic nodule, dosed 104 weeks, study length 108 weeks)?
The TD50 was 7340 mg/kg/day.

What about the TD50 (rat, strain F344/DuCrj, males, in drinking water, site: adrenal medulla, lesion: pheochromocytoma, malignant, dosed 104 weeks, study length 108 weeks) of the same compound?
Its TD50 is 552 mg/kg/day.

What about the TD50 (rat, strain F344/DuCrj, males, in drinking water, site: adrenal medulla, lesion: pheochromocytoma, dosed 104 weeks, study length 108 weeks) of the same compound?
Its TD50 is 86.4 mg/kg/day.

And the carcinogen call (rat, strain F344/DuCrj, males, in drinking water, site: forestomach, lesion: neoplasm, dosed 52 weeks, study length 52 weeks)?
The carcinogen call was “negative (inactive)”.

And the TD50 (rat, strain F344/DuCrj, males, in drinking water, site: liver, lesion: cholangioma, dosed 104 weeks, study length 108 weeks)?
The TD50 was 6470 mg/kg/day.

What about the TD50 (rat, strain F344/DuCrj, males, in drinking water, site: liver, lesion: neoplastic nodule, dosed 104 weeks, study length 108 weeks) of the same compound?
The TD50 was 2060 mg/kg/day.

What about the TD50 (rat, strain F344/DuCrj, males, in drinking water, site: liver, lesion: several types, types named in the paper, dosed 104 weeks, study length 108 weeks) of the same compound?
Its TD50 is 3670 mg/kg/day.

What about the TD50 (rat, strain F344/DuCrj, males, in drinking water, site: spleen, lesion: mononuclear-cell leukemia, dosed 104 weeks, study length 108 weeks) of the same compound?
The TD50 was 548 mg/kg/day.

And the TD50 (rat, strain F344/DuCrj, males, in drinking water, site: thyroid gland, lesion: c-cell adenoma, dosed 104 weeks, study length 108 weeks)?
The TD50 was 671 mg/kg/day.

And the TD50 (rat, strain F344/DuCrj, males, in drinking water, site: thyroid gland, lesion: several types, types named in the paper, dosed 104 weeks, study length 108 weeks)?
Its TD50 is 976 mg/kg/day.

Which TD50 (mouse, strain B6C3F1, females, in feed, site: liver, lesion: hepatocellular adenoma, dosed 104 weeks, study length 104 weeks) does the source give for `CN(C)CCOC(C)(c1ccccc1)c1ccccn1` (stereo not drawn) here?
The TD50 was 633 mg/kg/day.

What about the TD50 (mouse, strain B6C3F1, females, in feed, site: lung, lesion: alveolar/bronchiolar adenoma, dosed 65 weeks, study length 65 weeks) of the same compound?
Its TD50 is 78.7 mg/kg/day.

And the TD50 (mouse, strain B6C3F1, females, in feed, site: lung, lesion: several types, types named in the paper, dosed 104 weeks, study length 104 weeks)?
Its TD50 is 170 mg/kg/day.

And the TD50 (mouse, strain B6C3F1, females, in feed, site: thyroid gland, lesion: follicular-cell adenoma, dosed 104 weeks, study length 104 weeks)?
The TD50 was 740 mg/kg/day.

And the TD50 (mouse, strain B6C3F1, females, in feed, site: thyroid gland, lesion: follicular-cell tumor, dosed 104 weeks, study length 104 weeks)?
The TD50 was 672 mg/kg/day.

And the TD50 (mouse, strain B6C3F1, males, in feed, site: liver, lesion: hepatocellular adenoma, dosed 65 weeks, study length 65 weeks)?
The TD50 was 77.8 mg/kg/day.

And the TD50 (mouse, strain B6C3F1, males, in feed, site: liver, lesion: hepatocellular adenoma, dosed 104 weeks, study length 104 weeks)?
Its TD50 is 144 mg/kg/day.

What about the TD50 (mouse, strain B6C3F1, males, in feed, site: liver, lesion: several types, types named in the paper, dosed 104 weeks, study length 104 weeks) of the same compound?
The TD50 was 125 mg/kg/day.

What about the TD50 (mouse, strain B6C3F1, males, in feed, site: lung, lesion: alveolar/bronchiolar adenoma, dosed 65 weeks, study length 65 weeks) of the same compound?
The TD50 was 3180 mg/kg/day.

What about the TD50 (mouse, strain B6C3F1, males, in feed, site: thyroid gland, lesion: follicular-cell adenoma, dosed 104 weeks, study length 104 weeks) of the same compound?
The TD50 was 273 mg/kg/day.

What about the carcinogen call (rat, strain Fischer 344, females, in feed, site: liver, lesion: several types, types named in the paper, dosed 104 weeks, study length 104 weeks) of the same compound?
The carcinogen call was “negative (inactive)”.

What about the TD50 (rat, strain Fischer 344, males, in feed, site: all sites, lesion: mononuclear-cell leukemia, dosed 104 weeks, study length 104 weeks) of the same compound?
The TD50 was 271 mg/kg/day.

And the TD50 (rat, strain Fischer 344, males, in feed, site: liver, lesion: hepatocellular adenoma, dosed 65 weeks, study length 65 weeks)?
The TD50 was 469 mg/kg/day.

What about the TD50 (rat, strain Fischer 344, males, in feed, site: liver, lesion: hepatocellular adenoma, dosed 104 weeks, study length 104 weeks) of the same compound?
Its TD50 is 3270 mg/kg/day.

And the TD50 (rat, strain Fischer 344, males, in feed, site: liver, lesion: hepatocellular carcinoma, dosed 104 weeks, study length 104 weeks)?
The TD50 was 3270 mg/kg/day.

And the TD50 (rat, strain Fischer 344, males, in feed, site: liver, lesion: several types, types named in the paper, dosed 104 weeks, study length 104 weeks)?
Its TD50 is 1610 mg/kg/day.

Which TD50 (mouse, strain B6C3F1, females, by gavage, site: liver, lesion: hepatocellular carcinoma, dosed 80 weeks, study length 80 weeks) does the source give for `CCCCC(CC)CO` (stereo not drawn) here?
The TD50 was 1680 mg/kg/day.

What about the TD50 (mouse, strain B6C3F1, males, by gavage, site: liver, lesion: several types, types named in the paper, dosed 80 weeks, study length 80 weeks) of the same compound?
The TD50 was 1710 mg/kg/day (inactive).

What about the carcinogen call (rat, strain Fischer 344, females, by gavage, site: liver, lesion: hepatocellular carcinoma, dosed 104 weeks, study length 104 weeks) of the same compound?
The carcinogen call was “negative (inactive)”.

What about the carcinogen call (rat, strain Fischer 344, males, by gavage, site: liver, lesion: several types, types named in the paper, dosed 104 weeks, study length 104 weeks) of the same compound?
The carcinogen call was “negative (inactive)”.

For `NC(=O)c1cccnc1`, which carcinogen call (mouse, strain Swiss albino, females, in drinking water, site: lung, lesion: several types, types named in the paper, dosed 113 weeks, study length 113 weeks) is on record?
The carcinogen call was “negative (inactive)”.

What about the carcinogen call (mouse, strain Swiss albino, males, in drinking water, site: lung, lesion: several types, types named in the paper, dosed 109 weeks, study length 109 weeks) of the same compound?
The carcinogen call was “negative (inactive)”.

How did the TD50 (mouse, strain B6C3F1, females, by gavage, site: any site (literature study), lesion: several types, types named in the paper, dosed 102 weeks, study length 103 weeks) turn out when `CC1(C)COC1=O` was run?
Its TD50 is 179 mg/kg/day (inactive).

And the TD50 (mouse, strain B6C3F1, females, by gavage, site: lung, lesion: alveolar/bronchiolar adenoma + alveolar/bronchiolar carcinoma, dosed 102 weeks, study length 103 weeks)?
The TD50 was 482 mg/kg/day.

And the carcinogen call (mouse, strain B6C3F1, males, by gavage, site: any site (literature study), lesion: several types, types named in the paper, dosed 102 weeks, study length 103 weeks)?
Its carcinogen call is “negative (inactive)”.

And the TD50 (mouse, strain B6C3F1, males, by gavage, site: lung, lesion: alveolar/bronchiolar adenoma + alveolar/bronchiolar carcinoma, dosed 102 weeks, study length 103 weeks)?
The TD50 was 435 mg/kg/day.

And the TD50 (rat, strain Fischer 344, females, by gavage, site: any site (literature study), lesion: several types, types named in the paper, dosed 103 weeks, study length 105 weeks)?
Its TD50 is 200 mg/kg/day.

And the TD50 (rat, strain Fischer 344, females, by gavage, site: stomach, lesion: squamous-cell carcinoma + squamous-cell papilloma, dosed 103 weeks, study length 105 weeks)?
The TD50 was 333 mg/kg/day.

And the TD50 (rat, strain Fischer 344, males, by gavage, site: any site (literature study), lesion: several types, types named in the paper, dosed 103 weeks, study length 105 weeks)?
Its TD50 is 181 mg/kg/day.

And the TD50 (rat, strain Fischer 344, males, by gavage, site: liver, lesion: hepatocellular adenoma + hepatocellular carcinoma + neoplastic nodule, dosed 103 weeks, study length 105 weeks)?
Its TD50 is 850 mg/kg/day.

What about the TD50 (rat, strain Fischer 344, males, by gavage, site: stomach, lesion: squamous-cell carcinoma + squamous-cell papilloma, dosed 103 weeks, study length 105 weeks) of the same compound?
The TD50 was 154 mg/kg/day.

And the TD50 (rat, strain Fischer 344, males, by gavage, site: stomach, lesion: squamous-cell carcinoma, dosed 103 weeks, study length 105 weeks)?
The TD50 was 532 mg/kg/day.

`CN(CCCC(=O)O)N=O` was tested. Which TD50 (rat, strain F344/DuCrj, males, in drinking water, site: urinary bladder/ureter, lesion: several types, types named in the paper, dosed 40 weeks, study length 78 weeks) did it give?
The TD50 was 0.982 mg/kg/day.

And the TD50 (rat, strain F344/DuCrj, males, in drinking water, site: urinary bladder/ureter, lesion: transitional-cell carcinoma, dosed 40 weeks, study length 78 weeks)?
The TD50 was 4.23 mg/kg/day.

For `O=S1OCCO1`, which TD50 (mouse, strain Ha/ICR, females, i.p., site: lung, lesion: papillary tumor, dosed 64 weeks, study length 64 weeks) is on record?
Its TD50 is 1.03 mg/kg/day.

Source: PubChem BioAssay AID1745844 (Carcinogenic Potency Database (CPDB), 2022)
